In paper PMC6134108, “Nystatin-like Pseudonocardia polyene B1, a novel disaccharide-containing antifungal heptaene antibiotic” (Scientific Reports, 2018):
Values after ≈ are worked out from the molar mass of the structure shown. Where two headings read alike, the source gives them in different places.

Experiments:
[1] = Microsomal (metabolic) stability; type: in vitro ADME; settings: human liver microsomes 1.0 mg/ml; for half-life at 1 µM / microsomal CLint at 1 µM / remaining at 80 min, 1 µM: pH 7.4; for remaining at 80 min, 1 µM: 80-min incubation
Procedure: A metabolic stability experiment was conducted to calculate the rate of disappearance of polyene macrolides following in vitro incubation with human microsomes. Working solutions of polyene macrolides were prepared from a 10 mM stock solution in dimethyl sulfoxide (DMSO) diluted to a final concentration of 1 µM in 0.1 M potassium phosphate buffer (pH 7.4). Each incubation mixture included 1 mg/mL human microsomal protein (BD Gentest^TM, Franklin Lakes, NJ, USA) and 1 mM NADPH. The reactions were terminated at 0, 15, 45, and 80 min. The reaction mixtures were vigorously vortexed and then analyzed using the API2000 LC-MS/MS) system (Applied Biosystems, USA) using an Xterra MS C18 (3.5-µm, 2.1 × 50 mm, Waters).

in vivo [2] = settings: mouse
Source text: Supplement 41598_2018_31801_MOESM1_ESM.docx, table 4: Table S4.

C. albicans SL38 = experiment: MIC assay (CLSI M27-A3 microbroth); type: cell-based; settings: Candida albicans
Procedure: (§1) For the minimum inhibitory concentration (MIC) assay, strains for testing were grown on YPD agar for 24 hours, and subcultured to YPD broth medium. Whole strains were incubated for 18 hours at 35 °C by shaking incubator. Grown organisms were diluted with fresh RPMI 1640 medium to appropriate concentration, 5 × 10^4 CFU/ml. Cultures were inoculated to 96-well plates containing antifungal medium. All compounds were dissolved using Dimethyl Sulfoxide (DMSO) and diluted broth media. Fungal diluted solution and antifungal medium were mixed at 1:1 ratio so total 200 ul mixed medium was made. Whole experiment plates were incubated for 24 hours at 37 °C. […] The MICs were calculated in duplicate using the Clinical and Laboratory Standards Institute M27-A3 microbroth methodology. Hemolysis experiments and the 3-(4,5-dimethylthiazol-2-yl)-5-(3-carboxymethoxyphenyl)-2-(4-sulfophenyl)-2H-tetrazolium (MTS) cell proliferation colorimetric assay were performed following known procedures[12],[27],[29].

[3] = tested on: Cryptococcus humicola ATCC9949; experiment: MIC assay (CLSI M27-A3 microbroth); type: cell-based; settings: Vanrija humicola
Procedure: as §1

C. albicans SC5314 = experiment: MIC assay (CLSI M27-A3 microbroth); type: cell-based; settings: Candida albicans
Procedure: as §1

[4] = tested on: Saccharomyces cerevisiae ATCC9035; experiment: MIC assay (CLSI M27-A3 microbroth); type: cell-based
Procedure: as §1

[5] = tested on: Candida albicans KCTC7965; experiment: MIC assay (CLSI M27-A3 microbroth); type: cell-based
Procedure: as §1

C. albicans SL28 = experiment: MIC assay (CLSI M27-A3 microbroth); type: cell-based; settings: Candida albicans
Procedure: as §1

ICR mice = experiment: 7-day repeated intravenous dose toxicity; type: in vivo
Procedure: (§2) All in vivo mouse toxicity studies were conducted according to Testing Guidelines for Safety Evaluation of Drugs[32] and the Organisation for Economic Co-operation and Development (OECD) Guideline[33]. Male and female ICR mice were used 7 weeks old for the toxicity test. […]

[6] = 7-day repeated intravenous dose toxicity; type: in vivo, mice; settings: both sexes, ICR, mouse, in vivo; mice, 7-day repeated intravenous doses; read-out: MTD, maximal tolerated dose
Procedure: as §2

in vivo [7] = settings: male, SD, rat, iv
horse blood cells = type: cell-based; settings: 90% hemolysis against horse blood cells; ± percentage standard deviation
Procedure: as §1

[8] = tested on: ergosterol-containing membranes; experiment: Preliminary SPR experiments; type: binding; settings: unpublished data
[9] = female, repeated iv 1.5mg/kg, day 0
[10] = female, repeated iv 1.5mg/kg, day 1
[11] = female, repeated iv 1.5mg/kg, day 2
[12] = female, repeated iv 1.5mg/kg, day 3
[13] = female, repeated iv 1.5mg/kg, day 4
[14] = female, repeated iv 1.5mg/kg, day 5
[15] = female, repeated iv 1.5mg/kg, day 6
[16] = female, repeated iv 1.5mg/kg, day 7
[17] = male, repeated iv 1.5mg/kg, day 0
[18] = male, repeated iv 1.5mg/kg, day 1
[19] = male, repeated iv 1.5mg/kg, day 2
[20] = male, repeated iv 1.5mg/kg, day 3
[21] = male, repeated iv 1.5mg/kg, day 4
[22] = male, repeated iv 1.5mg/kg, day 5
[23] = male, repeated iv 1.5mg/kg, day 6

SMILES: C[C@@H]1[C@H](O)[C@@H](C)/C=C/C=C/C=C/C=C/C=C/C=C/C=C/[C@H](O[C@@H]2O[C@H](C)[C@@H](O)[C@H](N)[C@@H]2O)C[C@@H]2O[C@](O)(C[C@@H](O)C[C@@H](O)[C@H](O)CC[C@@H](O)C[C@@H](O)CC(=O)O[C@H]1C)C[C@H](O)[C@H]2C(=O)O [Amphotericin B, amphotericin B]
- Clearance class [1]: Low
- half-life at 1 µM [1]: > 1.33 h
- microsomal CLint at 1 µM [1]: < 8600 µL/min/mg
- remaining at 80 min, 1 µM [1]: 101%
- AUC(0-inf) (in vivo [2]; 1 mg/kg): 29300 ng·h/mL
- AUC(0-t) (in vivo [2]; 1 mg/kg): 22200 ng·h/mL
- MRT inf (in vivo [2]; 1 mg/kg): 5.5 h
- Vd (in vivo [2]; 1 mg/kg): 0.2 L/kg
- clearance (in vivo [2]; 1 mg/kg): 0.5 mL/min/kg
- half-life (in vivo [2]; 1 mg/kg): 3.4 h
- MIC (C. albicans SL38; C. albicans SL38, no visible growth, read-out: Antifungal activity (MIC)): 1 µg/mL (≈ 1.08 µM)
- MIC ([3]; Cryptococcus humicola ATCC9949, read-out: Antifungal activity (MIC)): 0.5 µg/mL (≈ 0.541 µM)
- MIC (C. albicans SC5314; C. albicans SC5314, no visible growth, read-out: Antifungal activity (MIC)): 1 µg/mL (≈ 1.08 µM)
- MIC ([4]; Saccharomyces cerevisiae ATCC9035, read-out: Antifungal activity (MIC)): 1 µg/mL (≈ 1.08 µM)
- MIC ([5]; Candida albicans KCTC7965, no visible growth, read-out: Antifungal activity (MIC)): 1 µg/mL (≈ 1.08 µM)
- MIC (C. albicans SL28; C. albicans SL28, no visible growth, read-out: Antifungal activity (MIC)): 1 µg/mL (≈ 1.08 µM)
- Deaths on day after start of treatment (ICR mice; female, repeated iv 0.5mg/kg, day 0): 0
- Deaths on day after start of treatment (ICR mice; female, repeated iv 0.5mg/kg, day 1): 0
- Deaths on day after start of treatment (ICR mice; female, repeated iv 0.5mg/kg, day 2): 0
- Deaths on day after start of treatment (ICR mice; female, repeated iv 0.5mg/kg, day 3): 0
- Deaths on day after start of treatment (ICR mice; female, repeated iv 0.5mg/kg, day 4): 0
- Deaths on day after start of treatment (ICR mice; female, repeated iv 0.5mg/kg, day 5): 0
- Deaths on day after start of treatment (ICR mice; female, repeated iv 0.5mg/kg, day 6): 0
- Deaths on day after start of treatment (ICR mice; female, repeated iv 0.5mg/kg, day 7): 0
- Deaths on day after start of treatment (ICR mice; [9]): 0
- Deaths on day after start of treatment (ICR mice; [10]): 0
- Deaths on day after start of treatment (ICR mice; [11]): 0
- Deaths on day after start of treatment (ICR mice; [12]): 0
- Deaths on day after start of treatment (ICR mice; [13]): 0
- Deaths on day after start of treatment (ICR mice; [14]): 0
- Deaths on day after start of treatment (ICR mice; [15]): 0
- Deaths on day after start of treatment (ICR mice; [16]): 0
- Deaths on day after start of treatment (ICR mice; male, repeated iv 0.5mg/kg, day 0): 0
- Deaths on day after start of treatment (ICR mice; male, repeated iv 0.5mg/kg, day 1): 0
- Deaths on day after start of treatment (ICR mice; male, repeated iv 0.5mg/kg, day 2): 0
- Deaths on day after start of treatment (ICR mice; male, repeated iv 0.5mg/kg, day 3): 0
- Deaths on day after start of treatment (ICR mice; male, repeated iv 0.5mg/kg, day 4): 0
- Deaths on day after start of treatment (ICR mice; male, repeated iv 0.5mg/kg, day 5): 0
- Deaths on day after start of treatment (ICR mice; male, repeated iv 0.5mg/kg, day 6): 0
- Deaths on day after start of treatment (ICR mice; [17]): 0
- Deaths on day after start of treatment (ICR mice; [18]): 0
- Deaths on day after start of treatment (ICR mice; [19]): 0
- Deaths on day after start of treatment (ICR mice; [20]): 0
- Deaths on day after start of treatment (ICR mice; [21]): 0
- Deaths on day after start of treatment (ICR mice; [22]): 0
- Deaths on day after start of treatment (ICR mice; [23]): 1
- MTD at 7 days [6]: 1.5 mg/kg
- half-life (in vivo [7]; in vivo, 0.5 mg/kg): 8.3 h
- AUC(0-inf) (in vivo [7]; plasma, 0.5 mg/kg): 1680 ng·h/mL
- AUC(0-t) (in vivo [7]; plasma, 0.5 mg/kg): 415 ng·h/mL
- MRT inf (in vivo [7]; plasma, 0.5 mg/kg): 11.6 h
- Vd (in vivo [7]; plasma, 0.5 mg/kg): 3.5 L/kg
- clearance (in vivo [7]; plasma, 0.5 mg/kg): 5 mL/min/kg
- lethality in rats (1 mg/kg dose): killed all the tested rats
- Hemolytic activity (MHC, minimum hemolytic concentration) (horse blood cells): 4.65 ± 0.17 µg/mL
- affinity compared with NPP B1 ([8]; ergosterol-containing membranes): higher affinity

SMILES: CC(=O)NC1C(OC2C(C)OC(OC3C=CC=CC=CC=CC=CC=CC=CC(C)C(O)C(C)C(C)OC(=O)CC(O)CC(O)CC(O)CCC(O)C(O)CC4(O)CC(O)C(C(=O)O)C(C3)O4)C(O)C2N)OC(CO)C(O)C1O (centres unmarked) [NPP B1, Nystatin-like Pseudonocardia polyene B1]
- Clearance class [1]: Moderate
- k [1]: 0.019
- half-life at 1 µM [1]: 0.608 h
- microsomal CLint at 1 µM [1]: 19000 µL/min/mg
- remaining at 80 min, 1 µM [1]: 28.2%
- AUC(0-inf) (in vivo [2]; 0.5 mg/kg, read-out: AUC0-inf): 15100 ng·h/mL
- AUC(0-t) (in vivo [2]; 0.5 mg/kg, read-out: AUC0-t): 5890 ng·h/mL
- clearance (in vivo [2]; 0.5 mg/kg, read-out: CL (converted)): 0.5 mL/min/kg
- MRT inf (in vivo [2]; 0.5 mg/kg, read-out: MRTinf): 17 h
- Vd (in vivo [2]; 0.5 mg/kg, read-out: Vss): 0.6 L/kg
- half-life (in vivo [2]; 0.5 mg/kg, read-out: t1/2 (converted)): 12.3 h
- MIC (C. albicans SL38; SL38, read-out: Antifungal activity (MIC)): 2 µg/mL (≈ 1.77 µM)
- MIC ([3]; ATCC9949, read-out: Antifungal activity (MIC)): 1 µg/mL (≈ 0.887 µM)
- MIC (C. albicans SC5314; SC5314, read-out: Antifungal activity (MIC)): 4 µg/mL (≈ 3.55 µM)
- MIC ([4]; Saccharomyces cerevisiae, ATCC9035, read-out: Antifungal activity (MIC)): 2 µg/mL (≈ 1.77 µM)
- MIC ([5]; Candida albicans, KCTC7965, read-out: Antifungal activity (MIC)): 2 µg/mL (≈ 1.77 µM)
- MIC (C. albicans SL28; SL28, read-out: Antifungal activity (MIC)): 4 µg/mL (≈ 3.55 µM)
- Deaths on day after start of treatment (ICR mice; [9]): 0
- Deaths on day after start of treatment (ICR mice; [10]): 0
- Deaths on day after start of treatment (ICR mice; [11]): 0
- Deaths on day after start of treatment (ICR mice; [12]): 0
- Deaths on day after start of treatment (ICR mice; [13]): 0
- Deaths on day after start of treatment (ICR mice; [14]): 0
- Deaths on day after start of treatment (ICR mice; [15]): 0
- Deaths on day after start of treatment (ICR mice; [16]): 0
- Deaths on day after start of treatment (ICR mice; [17]): 0
- Deaths on day after start of treatment (ICR mice; [18]): 0
- Deaths on day after start of treatment (ICR mice; [19]): 0
- Deaths on day after start of treatment (ICR mice; [20]): 0
- Deaths on day after start of treatment (ICR mice; [21]): 0
- Deaths on day after start of treatment (ICR mice; [22]): 0
- Deaths on day after start of treatment (ICR mice; [23]): 0
- MTD at 7 days [6]: > 1.5 mg/kg
- AUC(0-inf) (in vivo [7]; plasma, 1 mg/kg): 13600 ng·h/mL
- AUC(0-t) (in vivo [7]; plasma, 1 mg/kg): 10300 ng·h/mL
- MRT inf (in vivo [7]; plasma, 1 mg/kg): 15.6 h
- Vd (in vivo [7]; plasma, 1 mg/kg): 1.1 L/kg
- clearance (in vivo [7]; plasma, 1 mg/kg): 1.67 mL/min/kg
- half-life (in vivo [7]; plasma, 1 mg/kg): 14.5 h
- detection in the plasma following oral administration (rats, oral administration): not detected
- Hemolytic activity (MHC, minimum hemolytic concentration) (horse blood cells): 13.60 ± 0.19 µg/mL
- binding preference ([8]; ergosterol- vs cholesterol-containing liposomes): binds preferentially to ergosterol-containing liposomes
